“And” between values parts separate entries of the source, which are not always exact repeats. Identical values can stand only once. The source made the active and inactive calls.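 Rule for the calls: active = IC50 no higher than ten times the top tested dose; inconclusive = flat fit with 30 to 70% inhibition, or poor fit; inactive = IC50 above ten times the top dose.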
Test system: Clostridium difficile clinical isolate growth, OD600, 24 h
Assay: growth modulation of Clostridium difficile isolate – OD600, 9-point, retest, dose response (AID 1224920);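 note: inhibitors lower culture turbidity so OD600 falls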

Compound	IC50
Cc1ccc(-c2ccc([C@H]3[C@@H](CO)N4CCCCN(C(=O)Nc5ccccc5)C[C@H]34)cc2)cc1	37.7 µM
COc1ccccc1S(=O)(=O)N1[C@@H]2CNC[C@H]1C2c1ccc(/C=C/c2ccccc2)cc1 (stereo partly specified)	63.2 µM
COc1ccc(C#Cc2ccc([C@@H]3[C@H](CO)N4CCCCN(C(=O)Nc5cccc(F)c5)C[C@@H]34)cc2)cc1	7.68 µM
Cc1ccccc1-c1ccc(C2[C@H]3CNC[C@@H]2N3Cc2ccc3c(c2)OCO3)cc1 (stereo partly specified)	27.7 µM
OC[C@@H]1Nc2ccc(-c3ccc(F)cc3)cc2[C@H]2[C@@H]1CCN2Cc1ccc(F)cc1	90.2 µM
Cc1ccccc1-c1ccc(C2[C@H]3CNC[C@@H]2N3C(=O)Nc2ccc(C(F)(F)F)cc2)cc1 (stereo partly specified)	17.4 µM
CC(C)CC#Cc1ccc([C@H]2[C@@H](CO)N3CCCCN(C(=O)Nc4ccccc4)C[C@H]23)cc1	12.8 µM
COc1ccccc1C#Cc1ccc2c(c1)[C@H]1[C@H](CCN1C(=O)c1ccc(F)cc1)[C@H](CO)N2	0.759 µM
COc1ccccc1C#Cc1ccc2c(c1)[C@@H]1[C@@H](CCN1C(=O)c1ccncc1)[C@@H](CO)N2	> 120 µM (inactive)
O=C(C[C@H]1CC[C@@H]2[C@H](COC[C@H](O)CN2C(=O)Nc2ccc(C(F)(F)F)cc2)O1)NCC1CCCCC1	6.15 µM
C[C@@H]1CN([C@@H](C)CO)C(=O)c2cccc(NC(=O)Nc3ccc(C(F)(F)F)cc3)c2O[C@H]1CN(C)C(=O)Nc1ccc(C(F)(F)F)cc1	22.2 µM
O=C(C[C@H]1CC[C@H]2[C@@H](COC[C@@H](O)CN2C(=O)Nc2ccc(Cl)c(Cl)c2)O1)NC1CCC1	19.4 µM
O=C(C[C@H]1CC[C@H]2[C@@H](COC[C@H](O)CN2C(=O)Nc2ccc(Cl)c(Cl)c2)O1)NC1CCC1	3.65 µM
O=C(C[C@@H]1CC[C@@H]2[C@H](COC[C@H](O)CN2C(=O)Nc2ccc(C(F)(F)F)cc2)O1)NCC1CCCCC1	7.67 µM
COc1cccc(-c2ccc(C3[C@@H]4CN(S(=O)(=O)c5cccc(OC)c5)C[C@H]3N4)cc2)c1 (stereo partly specified)	24.4 µM
COc1ccc(C#Cc2ccc([C@@H]3[C@@H](CO)N4CCCCN(Cc5ccccc5F)C[C@H]34)cc2)cc1	7.31 µM
COc1ccc2c3c(n(C)c2c1)[C@@H](CO)NCC31CN(Cc2ccc(Cl)cc2)C1	50 µM
COc1cccc(S(=O)(=O)N2[C@@H]3CNC[C@H]2C3c2ccc(/C=C/c3ccccc3)cc2)c1 (stereo partly specified)	23.9 µM
Cc1ccc(-c2ccc([C@H]3[C@H](CO)N4CCCCN(C(=O)Nc5cccc(F)c5)C[C@@H]34)cc2)cc1	11.2 µM
O=C(c1cnccn1)N1CC(=O)N2[C@H](C1)[C@@H](c1ccc(C#CCc3ccccc3)cc1)[C@@H]2CO	> 240 µM (inactive)
COc1cccc(CN2C[C@@H]3N[C@H](C2)C3c2ccc(-c3ccccc3F)cc2)c1 (stereo partly specified)	9.26 µM and 6.5 µM

Compound	IC50
Cc1cccc(-c2ccc([C@@H]3[C@H]4CN(CCC(F)(F)F)CCCCN4[C@H]3CO)cc2)c1	66.4 µM
O=C(C[C@@H]1CC[C@@H]2[C@H](COC[C@@H](O)CN2C(=O)Nc2ccc(C(F)(F)F)cc2)O1)NC1Cc2ccccc2C1	6.53 µM
Cc1ccc(S(=O)(=O)N2[C@@H]3CNC[C@H]2C3c2ccc(-c3ccccc3C)cc2)cc1 (stereo partly specified)	30.6 µM
O=C(Nc1ccccc1)N1C[C@@H]2N[C@H](C1)C2c1ccc(-c2ccccc2)cc1 (stereo partly specified)	59.7 µM
COc1ccc(C#Cc2ccc([C@H]3[C@H](CO)N4CCCCN(C(=O)Nc5ccc(F)cc5)C[C@@H]34)cc2)cc1	5.67 µM
N#Cc1ccc(-c2ccc3c(c2)[C@H]2[C@H](CCN2C(=O)c2ccncc2)[C@H](CO)N3)cc1	> 120 µM (inactive)
Cc1ccccc1-c1ccc(C2[C@@H]3CN(S(=O)(=O)c4ccccc4C)C[C@H]2N3)cc1 (stereo partly specified)	27.5 µM
O=C(c1ccc(F)cc1)N1CC(=O)N2[C@H](CO)[C@H](c3ccc(C#CCC4CCCC4)cc3)[C@H]2C1	81.6 µM
COc1cccc(CN2C[C@@H]3N[C@H](C2)C3c2ccc(-c3ccccc3C)cc2)c1 (stereo partly specified)	5.48 µM and 13.3 µM
Cc1ccc(-c2ccc(C3[C@@H]4CN(S(=O)(=O)c5cccc(C)c5)C[C@H]3N4)cc2)cc1 (stereo partly specified)	8.64 µM
O=C(C1CCC1)N1C[C@@H]2N[C@H](C1)C2c1ccc(/C=C/c2ccccc2)cc1 (stereo partly specified)	74.4 µM
O=C(Nc1ccc(F)cc1)N1CCCCN2[C@H](CO)[C@@H](c3ccc(-c4cccc(F)c4)cc3)[C@H]2C1	92.2 µM
O=C(Nc1ccc(F)cc1)N1CCCCN2[C@H](CO)[C@H](c3ccc(-c4cccc(F)c4)cc3)[C@H]2C1	70.3 µM
COc1ccc(C#Cc2ccc([C@@H]3[C@H]4CN(Cc5ccccc5F)CCCCN4[C@H]3CO)cc2)cc1	13.7 µM
O=C(C[C@@H]1CC[C@H]2[C@@H](COC[C@@H](O)CN2C(=O)Nc2cc(Cl)cc(Cl)c2)O1)N1CCOCC1	17.3 µM
O=C(Nc1cccc(F)c1)N1CCCCN2[C@@H](CO)[C@@H](c3ccc(C#CC4CC4)cc3)[C@@H]2C1	35.4 µM
COc1ccc(-c2ccc(C3[C@H]4CNC[C@@H]3N4C(=O)Nc3ccc(C(F)(F)F)cc3)cc2)cc1 (stereo partly specified)	65.7 µM and 10.6 µM
Cc1ccc(-c2ccc([C@@H]3[C@H](CO)N4CCCCN(C(=O)Nc5cccc(F)c5)C[C@@H]34)cc2)cc1	6.52 µM
COc1ccccc1C#Cc1ccc2c(c1)[C@H]1[C@H](CCN1C(=O)c1ccncc1)[C@H](CO)N2	63.5 µM
Fc1cccc(CN2[C@@H]3CNC[C@H]2C3c2ccc(-c3cccc(F)c3)cc2)c1 (stereo partly specified)	28 µM

— PubChem BioAssay AID1224920 (Broad Institute, 2016)
